Laboratory results as given in ChEMBL document CHEMBL1123147, “The intercalation of 6-chloro-substituted-9-[[3-(dimethylamino)propyl]amino]acridines with DNA” (J Med Chem, 1985).

Test system: Nucleic Acid
Assay: Binding constant were determined from viscometric titrations with closed circular superhelical DNA

Compound | K app
CN(C)CCCNc1c2ccccc2nc2cc(Cl)ccc12 | 130000
CN(C)CCCNc1c2ccc(Cl)cc2nc2ccc(Cl)cc12 | 160000
CSc1ccc2nc3cc(Cl)ccc3c(NCCCN(C)C)c2c1 | 200000
CN(C)CCCNc1c2ccc(Cl)cc2nc2ccc(F)cc12 | 160000
Cc1ccc2nc3cc(Cl)ccc3c(NCCCN(C)C)c2c1 | 290000
COc1ccc2nc3cc(Cl)ccc3c(NCCCN(C)C)c2c1 | 210000
